For one assay, the target named is HIV-1 protease (Human immunodeficiency virus type 1 group M subtype B, UniProt P03369). Kind of assay: biochemical. As to the method:
HIV-1 protease activity was measured at 37° C. using a continuous fluorimetric assay based on the method of Toth et al., (Toth et al., 1990, Int. J. Pept. Res. 36 544-550). The substrate, 2-aminobenzoyl-threonine-isoleucine-norleucine-(p-nitro)-phenylalanine-glutamine-arginine-NH2 (Abz-NF^* -6), was synthesised by solid phase peptide synthesis (Kent et al., 1991, In: Peptides 1990: Proceedings of the Twenty-First European Peptide Symposium (Girault, E. and Andrew, D. eds.) pp 172-173, ESCOM, Leiden). Enzyme activity was measured as the increase in fluorescence intensity upon substrate hydrolysis. The change in fluorescence intensity was monitored with a Perkin Elmer LS50B luminescence spectrometer fitted with a thermostatted micro cuvette holder. Measurements were carried out using an excitation wavelength of 320 nm (bandwith 5 nm) and an emission wavelength of […] (bandwith 5 nm).
Inhibition assays were routinely carried out at pH 6.5 and μ=0.1 M using a single substrate concentration. The assay mixtures contained 50 μM Abz-NF^* -6 in 100 mM 2-(N-morpholino)ethanesulphonate buffer, containing 10% (v/v) glycerol and 50 μg/ml bovine serum albumin, in a total final volume of 400 μl. Where inhibitors had to be dissolved in dimethyl sulphoxide or other organic solvents, the final concentration of solvent in the control and inhibition assays were kept absolutely constant because of the severe inhibitory effect of some solvents on the enzyme activity (Bergman et al., 1992, 17th Ann. Lorne Conf. on Protein Struct. and Funct. Abstr.). In all assays, the reaction was initiated by the addition of 10 μl of enzyme solution.

In a further assay the test system is HIV-1 (strain TC354). Put plainly: Assay for anti-viral activity: HIV-1 (strain TC354) replication in PHA-stimulated cord blood mononuclear cells, reverse transcriptase activity. The format is cell-based. The settings on record: read-out: effective concentration, inhibition of virus replication. As to the method: Method: Target cells (PHA-stimulated cord blood mononuclear cells) were washed free of PHA and inoculated with HIV-1 (strain TC354) at a multiplicity of infection of 1, in the presence of 20 μg/ml DEAE-dextran for 30 mins. Cells were washed to remove unbound virus and residual DEAE-dextran. 10^5 cells were added to each well of 96 well plate, solutions of test compounds were added, each tested in triplicate. Dilutions were prepared in RPMI/1640. Tissue culture medium (RPMI/1640 buffer, 10% FCS, 20 U/ml […]) was added to a final volume of 200 μl. Reverse transcriptase activity was assayed four days post inoculation, RT activity >30 cpm was considered positive for HIV-1 replication.

The next assay deals with HIV. Kind of assay: Activity against HIV in cells / cell culture. In kind it is cell-based.
The mark [1] stands for this setting: Table 9, R isomer, read-out: IC50.
The mark [2] stands for this setting: Table 9, S isomer, read-out: IC50.

Entries after “also recorded” stand apart in the source; their conditions may differ. Like-named read-outs stand apart in the source and are kept apart here.

Broadly, the IC50 is the concentration at which inhibition is half-maximal.

As to `CC(C)(C)NC(=O)[C@@H]1CCCCN1C[C@@H](O)[C@@H]1Cc2ccc(cc2)OCCCC(=O)N[C@@H](CC(N)=O)C(=O)N1` [Compound 44], the IC50 at HIV-1 protease was found to be 16 nM. For the same compound, in the assay with HIV-1 (strain TC354) (Human immunodeficiency virus 1, 96 h), the EC50 was determined as 1000 nM. The “anti-viral activity, stated in words” value in the assay on HIV is given as “poor inhibitor of viral replication in cells”.

As for `CC(C)CCN(C[C@@H](O)[C@@H]1Cc2ccc(cc2)OCCCCC(=O)N[C@@H](C(C)C)C(=O)N1)S(=O)(=O)c1ccccc1` [Compound 68], the EC50 with HIV-1 (strain TC354) (Human immunodeficiency virus 1, 96 h, four days post inoculation) came out at 100 nM.

For `CC[C@H](C)[C@@H]1NC(=O)[C@@H](NC[C@@H](O)[C@H](Cc2ccccc2)NC(=O)[C@@H](NC(=O)c2ccc3ccccc3n2)C(C)C)Cc2ccc(cc2)OCCCNC1=O` [Compound 93], the “protease inhibition, stated in words” value at HIV-1 protease was “very potent inhibitor of HIV-1 protease; also recorded: equipotent as a protease inhibitor with the DuPont-Merck compound DM323”. Further, the IC50 at HIV-1 protease (setting [1]) is 1 nM; in the assay on HIV (Human immunodeficiency virus 1, read-out: IC50, anti-viral activity against HIV in cell culture) it was less than 1000 nM. In addition, the EC50 in the assay with HIV-1 (strain TC354) (four days post inoculation) was determined as 100000 nM.

Turning to `CC(C)C1NC(=O)CCCOc2ccc(cc2)CC(C(O)CNC2Cc3ccc(cc3)OCCCNC(=O)C(CCC(N)=O)NC2=O)NC1=O` (centres unmarked) [Compound 131], on HIV-1 protease, the “protease inhibition, stated in words” value is listed as “quite active”.

With “Ac-LNFPIV-NH2 [Compound 85, reference compound]”, the results for the IC50 on HIV-1 protease (setting [1]) and at HIV-1 protease (setting [2]) were 60 nM and 9 nM, respectively.

As to “Ac-LVFFIV-NH2 [Compound 86, reference compound]”, on HIV-1 protease (setting [1]), the IC50 was determined as 5 nM.

As for “Ac-SLNFPIV-NH2 [Compound 84, reference compound]”, the IC50 with HIV-1 protease (setting [1]) was found to be 22 nM; in the assay with HIV-1 protease (setting [2]) it was 1 nM.

“Ac-Ser-Leu-Asn-Phe-[CHOH--CH2 ]-Pro-Ile-Val-OMe (Ac-SLNFPIV-OMe; also: hydroxyethylene isostere [CHOH-CH2] replaces the Phe-Pro amide bond) [JG-365, reference compound]”: the IC50 with HIV-1 protease (R-isomer of JG-365, pH 6.5, 37° C., read-out: IC50 (Inhibitor Potency)) is 44 nM; with HIV-1 protease (S-isomer of JG-365, pH 6.5, 37° C., read-out: IC50 (Inhibitor Potency)) it was 6 nM. Also, in the assay with HIV, the “anti-viral activity, stated in words” value is given as “do not have anti-viral activity”. Also, the “activity against HIV in cells” value with HIV (at 100 μM) was “inactive”.

Turning to “AcLeuAsnPhe[^* CHOH--CH2 N]ProIleValOMe [Compound 1, reference compound]”, the IC50 at HIV-1 protease (AcLeuAsnPhe[CHOH--CH2 N]ProIleValOMe, pH 6.5, 37° C., read-out: IC50) was 60 nM. In addition, the “reduction of protease inhibition on truncation of the Serine” value on HIV-1 protease (versus JG-365) is listed as 10 -fold.

These data come from US6043357A, “HIV protease inhibitors” (The University of Queensland, priority 1994, dated 2000).
